Assay results taken from patent publication US20240140931A1, “TRICYCLIC COMPOUNDS AND USES THEREOF” (HUTCHMED LIMITED, priority 2021, published 2024).

How the values were obtained:
[1] = target: Human full-length SHP2 recombinant protein (Homo sapiens (Human), UniProt Q06124); assay: Assay of full-length SHP2 phosphatase activity; type: biochemical; conditions: DiFMUP substrate, with activating peptide
Method: Example 2 Assay of Full-Length SHP2 Phosphatase Activity
1. Reagents and Materials • Human full-length SHP2 recombinant protein: BPS Bioscience, Cat #79018; • SHP2 substrate DiFMUP (1 mM): BPS Bioscience, Cat #79769; • SHP2 activating peptide (100 μM): BPS Bioscience, Cat #79319-2; • DTT: Merck, Cat #DTT-RO; • 384-well plate: Corning, Cat #3575; • 96-well plate: Thermo Fisher Scientific, Cat #249952; • Instrument: EnVision 2104, PerkinElmer.
2. Preparation of Reaction Solutions
The test compound was dissolved in DMSO and diluted with DMSO to 100.0 μM, and the compound was further 3-fold diluted with DMSO to: 100.00, 33.33, 11.11, 3.70, 1.23, 0.41, 0.14 and 0.05 μM.
3. Experimental Steps • To the corresponding wells of the 384-well plate was added 2.5 μL of 4× test compound or 2.5 μL of 4% DMSO solution, and centrifugation was carried out at 1000 rpm for 30 seconds. • To the test compound well and positive control well was added 2.5 μL of 4× mixed solution of SHP2 enzyme/activating peptide while to the negative control well was added 2.5 μL of 1× enzymatic reaction buffer; centrifugation was carried out at 1000 rpm for 30 seconds and incubation was carried out at room temperature for 30 minutes. • To each well was added 5 μL of 2×DiFMUP substrate to initiate the enzymatic reaction, then the plate was transiently oscillated and centrifuged at 1000 rpm for 30 seconds, and the 384-well plate was sealed with a sealing membrane and incubated at 25° C. on a low-speed shaker (100 rpm) in the dark for 60 minutes. • The fluorescence value (relative fluorescence units, RFU) of each well was detected on EnVision2104 (excitation: 355 nm, emission: 460 nm).
wherein • the RFU of compound well refers to the fluorescence reading at 460 nm of the well containing the test compounds; • the RFU of negative control well refers to the fluorescence reading at 460 nm of the background well containing 1% DMSO and the enzymatic reaction buffer; • the RFU of positive control well refers to the fluorescence reading at 460 nm of the well containing 1% DMSO and the mixed solution of SHP2 enzyme/activating peptide.
(§1) IC50 values were calculated following formula 205: y=A+((B−A)/(1+((C/X)^D))), by using the XL-Fit 5.0 software.

[2] = tested on: pERK1/2 (Thr202/Tyr204) in Miapaca2 cells; assay: Assay of intracellular pERK1/2 (Thr202/Tyr204) phosphorylation; type: cell-based; conditions: pERK1/2 (Thr202/Tyr204) HTRF
Method: Example 3 Assay of Intracellular pERK1/2 (Thr202/Tyr204) Phosphorylation
1. Reagents and Materials • pERK1/2 (Thr202/Tyr204) HTRF kit: Cisbio, Cat #64ERKPEH; • Cell line: Miapaca2, ATCC, CRL-1420; • OptiPlate™-384-well plate: PerkinElmer, Cat #6007299; • 96-well plate: Corning, Cat #353072; • Instrument: EnVision2104, PerkinElmer.
2. Preparation of Reaction Solutions • The test compound was dissolved in DMSO and diluted with DMSO to 600.0 μM, and the compound was further 3-fold diluted with DMSO to: 600.0, 200.0, 66.7, 22.2, 7.4, 2.5, 0.82 and 0.27 μM. Then 10 μL of the compound at different dilution concentrations was added to 190 μL of a DMEM medium to prepare a 10× test compound, wherein DMSO was at the concentration of 5% (DMSO was at the final concentration of 0.5%). • 1× cell lysis buffer: 4× cell lysis stock solution (provided by the kit) was diluted 4-fold with deionized water, and then 1% 100× blocking stock solution (provided by the kit) was added thereto. • pERK1/2 detection solution (prepared just before use): the pERK1/2 d2 antibody (provided by the kit) and pERK1/2 Cryptate antibody (provided by the kit) were diluted with the detection solution (provided by the kit) at a ratio of 1:1:38.
3. Experimental Steps • Miapaca2 cells were inoculated into a 96-well plate at a density of 10000 cells/well at 90 μL/well and cultured in a cell incubator at 5% CO2 and 37° C. overnight. • 10 μL of 10× test compound was added to the 90 μL cell culture 96-well plate; to the cell positive control well was added 10 μL of 5% DMSO culture solution; and the plate was cultured in a cell incubator at 5% CO2 and 37° C. for 2 hours. • The medium in the 96-well plate was removed; 50 μL of 1× cell lysis buffer was added to each well; the plate was placed in a microplate shaker; and lysis under shaking was carried out at 900 rpm at room temperature for 1 hour. • 16 μL of the lysis buffer in the 96-well plate was taken and transferred to a 384-well plate, and centrifugation was carried out at 1000 rpm for 30 seconds; then 4 μL of pERK1/2 detection solution was added to each well and centrifugation was carried out at 1000 rpm for 30 seconds; and the 384-well plate was sealed with a sealing membrane and incubated at 25° C. on a low-speed shaker (100 rpm) in the dark for 2 hours. • The fluorescence value (relative fluorescence units, RFU) of each well was detected on EnVision2104 (emission 1: 665 nm, emission 2: 615 nm).
wherein • the fluorescence ratio of compound well refers to the fluorescence ratio of the well containing the test compounds; • the fluorescence ratio of negative control well refers to the fluorescence ratio of the background containing the cell lysis buffer and no Miapaca2 cells; • the fluorescence ratio of positive control well refers to the fluorescence ratio of the well containing 0.5% DMSO and Miapaca2 cells.
as §1

Sequence of Human full-length SHP2 recombinant protein (Q06124 whole entry): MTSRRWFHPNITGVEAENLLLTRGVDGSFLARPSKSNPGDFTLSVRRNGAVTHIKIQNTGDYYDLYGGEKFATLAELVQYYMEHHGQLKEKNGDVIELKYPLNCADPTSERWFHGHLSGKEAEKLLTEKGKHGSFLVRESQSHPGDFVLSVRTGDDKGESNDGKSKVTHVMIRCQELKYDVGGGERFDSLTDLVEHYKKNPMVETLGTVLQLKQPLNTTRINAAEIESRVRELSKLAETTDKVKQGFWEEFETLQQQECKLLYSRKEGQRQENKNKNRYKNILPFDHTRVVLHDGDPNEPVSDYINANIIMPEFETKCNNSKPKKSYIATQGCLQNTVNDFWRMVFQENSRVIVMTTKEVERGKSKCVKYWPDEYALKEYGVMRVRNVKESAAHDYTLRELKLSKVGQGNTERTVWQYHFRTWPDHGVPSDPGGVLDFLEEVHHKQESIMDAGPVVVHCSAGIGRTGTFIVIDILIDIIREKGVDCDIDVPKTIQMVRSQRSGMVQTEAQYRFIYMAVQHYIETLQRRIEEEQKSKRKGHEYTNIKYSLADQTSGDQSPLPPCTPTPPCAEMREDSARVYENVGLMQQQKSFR

Compound	IC50 [1]	IC50 ([2]; Homo sapiens, MIA PaCa-2, 2 h)	IC50 ([2]; 2 hours)
C#Cc1ccc2c(c1)CC1(CCN(c3ncc(Sc4ccnc(N)n4)c4nccn34)CC1)[C@@H]2N [Compound 9]	4 nM	38 nM	–
C#Cc1ccc2c(c1)CC1(CCN(c3ncc(Sc4ccnc(NC5CCC5)c4Cl)c4nccn34)CC1)[C@@H]2N [Compound 10]	35 nM	220 nM	–
C#Cc1ccc2c(c1)[C@@H](N)C1(CCN(c3cc(=O)n(-c4ccc(F)c(F)c4)c(C)n3)CC1)C2 [Compound 15]	8 nM	87 nM	–
C#Cc1ccc2c(c1)[C@@H](N)C1(CCN(c3cc(=O)n(-c4cccc(Cl)c4F)c(C)n3)CC1)C2 [Compound 16]	4 nM	–	34 nM
C#Cc1ccc2c(c1)[C@@H](N)C1(CCN(c3cc(=O)n(-c4cccc(Cl)c4)c(C)n3)CC1)C2 [Compound 17]	18 nM	203 nM	–
C#Cc1ccc2c(c1)CC1(CCN(c3nc(N)c(-c4cn(C)c5ncccc45)c4nccn34)CC1)[C@@H]2N [Compound 25]	12 nM	151 nM	–
C#Cc1ccc2c(c1)CC1(CCN(c3cc(=O)n(-c4cccc(Cl)c4)c(C)n3)CC1)[C@@H]2N [Compound 26]	158 nM	> 3000 nM	–
C#Cc1ccc2c(c1)[C@@H](N)C1(CCN(c3ncc(Sc4ccnc(N)n4)c4nccn34)CC1)C2 [Compound 27]	1 nM	11 nM	–
C#Cc1ccc2c(c1)[C@@H](N)C1(CCN(c3cc(=O)n(-c4ccc(F)c(OC)c4)c(C)n3)CC1)C2 [Compound 29]	25 nM	489 nM	–
COCC#Cc1ccc2c(c1)[C@@H](N)C1(CCN(c3cc(=O)n(-c4cccc(Cl)c4Cl)c(C)n3)CC1)C2 [Compound 30]	2 nM	8 nM	–
Cc1nc(N2CCC3(CC2)Cc2ccc(C#CCOC(C)(C)C)cc2[C@H]3N)cc(=O)n1-c1cccc(Cl)c1Cl [Compound 31]	5 nM	37 nM	–
Cc1nc(N2CCC3(CC2)Cc2ccc(C#CCO)cc2[C@H]3N)cc(=O)n1-c1cccc(Cl)c1Cl [Compound 32]	1 nM	6 nM	–
C#Cc1ccc2c(c1)[C@@H](N)C1(CCN(c3cc(=O)n(-c4cccc(C#N)c4Cl)c(C)n3)CC1)C2 [Compound 34]	4 nM	–	244 nM
C#Cc1ccc2c(c1)[C@@H](N)C1(CCN(c3cc(=O)n(-c4c(F)cccc4F)c(C)n3)CC1)C2 [Compound 35]	17 nM	274 nM	–
COCC#Cc1ccc2c(c1)[C@@H](N)C1(CCN(c3nc(C)n(-c4cccc(Cl)c4Cl)c(=O)c3C)CC1)C2 [Compound 36]	6 nM	33 nM	–
Cc1nc(N2CCC3(CC2)Cc2ccc(C#C[C@@H](C)O)cc2[C@H]3N)cc(=O)n1-c1cccc(Cl)c1Cl [Compound 37]	44 nM	599 nM	–
Cc1nc(N2CCC3(CC2)Cc2ccc(C#C[C@H](C)O)cc2[C@H]3N)cc(=O)n1-c1cccc(Cl)c1Cl [Compound 38]	46 nM	343 nM	–
C#Cc1ccc2c(c1)[C@@H](N)C1(CCN(c3cc(=O)n(-c4cccc5[nH]ncc45)c(C)n3)CC1)C2 [Compound 39]	21 nM	294 nM	–

Compound	IC50 [1]	IC50 ([2]; Homo sapiens, MIA PaCa-2, 2 h)	IC50 ([2]; 2 hours)
COCC#Cc1ccc2c(c1)[C@@H](N)C1(CCN(c3ncc(Sc4ccnc(N)c4Cl)c4nccn34)CC1)C2 [Compound 40]	2 nM	6 nM	–
C#Cc1ccc2c(c1)[C@@H](N)C1(CCN(c3cc(=O)n(-c4ccc(F)cc4F)c(C)n3)CC1)C2 [Compound 41]	21 nM	115 nM	–
C#Cc1ccc2c(c1)[C@@H](N)C1(CCN(c3cc(=O)n(-c4ccccc4Cl)c(C)n3)CC1)C2 [Compound 42, (S)-6-(1-amino-6-ethynyl-1,3-dihydrospiro[indene-2,4′-piperidin]-1′-yl)-3-(2-chlorophenyl)-2-methylpyrimidin-4(3H)-one]	6 nM	133 nM	–
C#Cc1ccc2c(c1)[C@@H](N)C1(CCN(c3cc(=O)n(-c4cccc(OC)c4)c(C)n3)CC1)C2 [Compound 43]	6 nM	117 nM	–
C#Cc1ccc2c(c1)[C@@H](N)C1(CCN(c3cc(=O)n(-c4cc(OC)ccc4Cl)c(C)n3)CC1)C2 [Compound 44]	60 nM	415 nM	–
C#Cc1ccc2c(c1)[C@@H](N)C1(CCN(c3cc(=O)n(-c4ccc(F)c(Cl)c4)c(C)n3)CC1)C2 [Compound 45]	11 nM	261 nM	–
C#Cc1ccc2c(c1)[C@@H](N)C1(CCN(c3cc(=O)n(-c4ccc(OCC)c(Cl)c4)c(C)n3)CC1)C2 [Compound 46]	96 nM	648 nM	–
C#Cc1ccc2c(c1)[C@@H](N)C1(CCN(c3cc(=O)n(-c4cccc(Cl)c4Cl)c(C)n3)CC1)O2 [Compound 47]	11 nM	115 nM	–
C#Cc1ccc2c(c1)[C@@H](N)C1(CCN(c3cc(=O)n(-c4cccc(SC)c4)c(C)n3)CC1)C2 [Compound 53]	18 nM	364 nM	–
C#Cc1ccc2c(c1)[C@@H](N)C1(CCN(c3nc(C)n(-c4ccc(F)cc4Cl)c(=O)c3C)CC1)C2 [Compound 54]	3 nM	–	36 nM
C#Cc1ccc2c(c1)[C@@H](N)C1(CCN(c3cc(=O)n(-c4cc(F)cc(F)c4)c(C)n3)CC1)C2 [Compound 55]	26 nM	388 nM	–
C#Cc1ccc2c(c1)[C@@H](N)C1(CCN(c3cc(=O)n(-c4ccnc(Cl)c4)c(C)n3)CC1)C2 [Compound 60]	13 nM	> 1000 nM	–
C#Cc1ccc2c(c1)[C@@H](N)C1(CCN(c3cc(=O)n(-c4cccc(F)c4Cl)c(C)n3)CC1)C2 [Compound 61]	3 nM	78 nM	–
C#Cc1ccc2c(c1)[C@@H](N)C1(CCN(c3cc(=O)n(-c4cccc(OCC)c4Cl)c(C)n3)CC1)C2 [Compound 62]	5 nM	105 nM	–
Cc1nc(N2CCC3(CC2)Cc2ccc(Nc4cnn(C)c4)cc2[C@H]3N)cc(=O)n1-c1cccc(Cl)c1Cl [Compound 63]	4 nM	177 nM	–
C#Cc1ccc2c(c1)[C@@H](N)C1(CCN(c3cc(=O)n(-c4cccc(Cl)c4Cl)c(C)n3)CC1)C2 [Compound 64]	184 nM	891 nM	–
CNCC#Cc1ccc2c(c1)[C@@H](N)C1(CCN(c3cc(=O)n(-c4cccc(Cl)c4Cl)c(C)n3)CC1)C2 [Compound 67]	1 nM	39 nM	–
